Assay results: US20250163104A1, “MACROCYCLIC IMMUNOMODULATORS” (priority 2021, published 2025)
*1 amine or outer side, *2 acyl side, *3 side chain or, on linkers, in order; H or OH if unused. Where a SMILES comes first, the peptide text is derived from it. Bridges are numbered along the chain shown (N, C = ends). [ ]: non-standard residue; d: D form. The star is where a group is joined. ξ: configuration not given here. Phe(4-COOH) = N[C@@H](Cc1ccc(C(=O)O)cc1)C(=O)O; Phe(4-CH2NH2) = NCc1ccc(C[C@H](N)C(=O)O)cc1; X5 = O=C([C@H](Cc1ccc2ncccc2c1)N[*:1])[*:2]; Bip = N[C@@H](Cc1ccc(-c2ccccc2)cc1)C(=O)O; Phe(3-Me) = Cc1cccc(C[C@H](N)C(=O)O)c1; Phe(2-Me) = Cc1ccccc1C[C@H](N)C(=O)O; Val(3-OH) = CC(C)(O)[C@H](N)C(=O)O; 4Pal = N[C@@H](Cc1ccncc1)C(=O)O; Cha = N[C@@H](CC1CCCCC1)C(=O)O; Ile(3ξ) = CCC(C)[C@H](N)C(=O)O; Thr(3ξ) = CC(O)[C@H](N)C(=O)O; Carboxymethyl = O=C(O)C*; Orn = NCCC[C@H](N)C(=O)O; Dab = NCC[C@H](N)C(=O)O; Dap = NC[C@H](N)C(=O)O

Target: T1, human PD-1 / PD-L1-Ig binding on Jurkat cell line over-expressing human PD-1 (Jurkat-PD-1) (Homo sapiens, UniProt Q15116)
T1 construct: expressed in transfected cells; host or cells: Jurkat
T1 sequence (Q15116 25-288): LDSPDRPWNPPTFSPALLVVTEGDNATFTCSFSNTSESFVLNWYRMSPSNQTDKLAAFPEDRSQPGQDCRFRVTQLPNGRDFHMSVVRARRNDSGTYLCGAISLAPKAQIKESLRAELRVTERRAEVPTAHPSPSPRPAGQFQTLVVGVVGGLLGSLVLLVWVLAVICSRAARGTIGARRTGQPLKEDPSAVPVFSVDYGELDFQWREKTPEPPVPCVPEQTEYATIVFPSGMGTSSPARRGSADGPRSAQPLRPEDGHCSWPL
Test: Jurkat-PD-1 Cell Binding High-Content Screening Assay (CBA)
Format: cell-based
Conditions: Jurkat HPD1_PDL1 IC50, Jurkat-PD-1 cells, PE-labeled PD-L1-Ig 20 nM final
Summary of the method: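 Jurkat-hPD-1 cells in DMEM with 10% fetal calf serum receive test compound and are held at 37° C for 2 h. PE-labeled PD-L1-Ig is added at 20 nM final and left for 1 hour. Cells are then fixed and Hoechst-stained, and binding is measured by imaging.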

Row | SMILES | IC50 [nM]
1 | CC(C)C[C@H]1NC(=O)[C@H](CCCN)NC(=O)[C@H](CN)NC(=O)[C@H](Cc2ccc(-c3ccccc3)cc2)NC(=O)[C@H](C(C)C)NC(=O)[C@H](Cc2c[nH]c3ccccc23)NC(=O)[C@H](CC(=O)O)NC(=O)[C@H](Cc2ccc(OCC(=O)O)cc2)NC(=O)[C@H](Cc2ccncc2)NC(=O)CSC[C@@H](C(=O)N[C@@H](C)C(N)=O)NC(=O)[C@H]([C@@H](C)O)NC(=O)[C@H](C(C)C)NC(=O)[C@H](CC2CCCCC2)NC(=O)[C@H](CCN)NC1=O [Compound 1372] | 12.6

Same assay, conditions: Jurkat-PD-1 cells, PE-labeled PD-L1-Ig 20 nM final; read-out: Jurkat HPD1_PDL1 IC50

Row | SMILES | IC50 [nM]
2 | Cc1ccccc1C[C@@H]1NC(=O)[C@H](CCN)NC(=O)[C@@H](CC(C)C)NC(=O)[C@H](CCCN)NC(=O)[C@H](CCC(=O)O)NC(=O)[C@H](Cc2ccc(-c3ccccc3)cc2)NC(=O)[C@H](C(C)C)NC(=O)[C@H](Cc2c[nH]c3ccccc23)NC(=O)[C@H](CC(=O)O)NC(=O)[C@H](Cc2ccc(OCC(=O)O)cc2)NC(=O)[C@H](CN)NC(=O)CSC[C@@H](C(=O)N[C@@H](C)C(N)=O)NC(=O)[C@H]([C@@H](C)O)NC(=O)[C@H](C(C)C)NC1=O [Compound 1484] ({CH2CO}-[Dap]Y(Carboxymethyl)DWV[Bip]E[Orn][dL][Dab][Phe(2-Me)]VTCA-NH2; thioether N-14) | 12.3
3 | CC(C)C[C@H]1NC(=O)[C@H](CCCN)NC(=O)[C@H](CCCCN)NC(=O)[C@H](Cc2ccc(-c3ccccc3)cc2)NC(=O)[C@H](C(C)C)NC(=O)[C@H](Cc2c[nH]c3ccccc23)NC(=O)[C@H](CC(=O)O)NC(=O)[C@H](Cc2ccncc2)NC(=O)[C@H](CN)NC(=O)CSC[C@@H](C(=O)N[C@@H](CC(N)=O)C(N)=O)NC(=O)[C@H](C(C)O)NC(=O)[C@H](C(C)C)NC(=O)[C@H](CC2CCCCC2)NC(=O)[C@H](CCN)NC1=O (stereo partly drawn) [Compound 2542] ({CH2CO}-[Dap][4Pal]DWV[Bip]K[Orn][dL][Dab][Cha]V[Thr(3ξ)]CN-NH2; thioether N-14) | 20.5
4 | CCC(C)[C@@H]1NC(=O)[C@H](Cc2ccc(-c3ccccc3)cc2)NC(=O)[C@H](C(C)C)NC(=O)[C@H](Cc2c[nH]c3ccccc23)NC(=O)[C@H](CC(=O)O)NC(=O)[C@H](Cc2ccc(O)cc2)NC(=O)[C@H](Cc2ccncc2)NC(=O)CSC[C@@H](C(=O)N[C@@H](C)C(N)=O)NC(=O)[C@H](C(C)O)NC(=O)[C@H](C(C)C)NC(=O)[C@H](CC2CCCCC2)NC(=O)[C@H](CC(N)=O)NC(=O)[C@@H](CC(C)C)NC(=O)[C@H](Cc2ccc(CN)cc2)NC1=O (stereo partly drawn) [Compound 2506] ({CH2CO}-[4Pal]YDWV[Bip][Ile(3ξ)][Phe(4-CH2NH2)][dL]N[Cha]V[Thr(3ξ)]CA-NH2; thioether N-14) | 70.6
5 | CC(C)C[C@H]1NC(=O)[C@H](CCCN)NC(=O)[C@H](C(C)C)NC(=O)[C@H](Cc2ccc(-c3ccccc3)cc2)NC(=O)[C@H](C(C)C)NC(=O)[C@H](Cc2c[nH]c3ccccc23)NC(=O)[C@H](CC(=O)O)NC(=O)[C@H](Cc2ccc(OCC(=O)O)cc2)NC(=O)[C@H](Cc2cnc[nH]2)NC(=O)CSC[C@@H](C(=O)N[C@H](C)C(N)=O)NC(=O)[C@H](C(C)O)NC(=O)[C@H](C(C)(C)O)NC(=O)[C@H](CC2CCCCC2)NC(=O)[C@H](CCN)NC1=O (stereo partly drawn) [Compound 2659] ({CH2CO}-HY(Carboxymethyl)DWV[Bip]V[Orn][dL][Dab][Cha][Val(3-OH)][Thr(3ξ)]C[dA]-NH2; thioether N-14) | 11.8
6 | CC[C@H](C)[C@@H]1NC(=O)[C@H](Cc2ccc(-c3ccccc3)cc2)NC(=O)[C@H](C(C)C)NC(=O)[C@H](Cc2c[nH]c3ccccc23)NC(=O)[C@H](CC(=O)O)NC(=O)[C@H](Cc2ccc(OCC(=O)O)cc2)NC(=O)[C@H](Cc2ccc(OCC(=O)O)cc2)NC(=O)CSC[C@@H](C(=O)N[C@@H](C)C(N)=O)NC(=O)[C@H]([C@@H](C)O)NC(=O)[C@H](C(C)C)NC(=O)[C@H](Cc2ccc(O)cc2)NC(=O)[C@H](CCN)NC(=O)[C@@H](CC(C)C)NC(=O)[C@H](CCCN)NC1=O [Compound 1680] ({CH2CO}-Y(Carboxymethyl)Y(Carboxymethyl)DWV[Bip]I[Orn][dL][Dab]YVTCA-NH2; thioether N-14) | 71.7

Continued, values first:

Row | IC50 [nM] | SMILES
7 | 9.8 | Cc1cccc(C[C@@H]2NC(=O)[C@H](CC(=O)O)NC(=O)[C@H](Cc3ccc(C(=O)O)cc3)NC(=O)[C@H](CN)NC(=O)CSC[C@@H](C(=O)N[C@@H](C)C(N)=O)NC(=O)[C@H]([C@@H](C)O)NC(=O)[C@H](C(C)C)NC(=O)[C@H](CC3CCCCC3)NC(=O)[C@H](CCN)NC(=O)[C@@H](CC(C)C)NC(=O)[C@H](CCCN)NC(=O)[C@H](CCCNC(N)=O)NC(=O)[C@H](Cc3ccc(-c4ccccc4)cc3)NC(=O)[C@H](C(C)C)NC2=O)c1 [Compound 1202]
8 | 10.6 | CC(C)C[C@@H]1NC(=O)[C@H](CC(N)=O)NC(=O)[C@@H](CC(C)C)NC(=O)[C@H](CN)NC(=O)[C@H](C(C)C)NC(=O)[C@H](Cc2ccc(-c3ccccc3)cc2)NC(=O)[C@H](C(C)C)NC(=O)[C@H](Cc2c[nH]c3ccccc23)NC(=O)[C@H](CC(=O)O)NC(=O)[C@H](Cc2ccncc2)NC(=O)[C@H](CN)NC(=O)CSC[C@@H](C(=O)NCC(N)=O)NC(=O)[C@H](CO)NC(=O)[C@H](C(C)C)NC1=O [Compound 1293] ({CH2CO}-[Dap][4Pal]DWV[Bip]V[Dap][dL]NLVSCG-NH2; thioether N-14)
9 | 4 | Cc1cccc(C[C@@H]2NC(=O)[C@H](CC(=O)O)NC(=O)[C@H](Cc3ccc(C(=O)O)cc3)NC(=O)[C@H](Cc3ccncc3)NC(=O)CSC[C@@H](C(=O)N[C@@H](CC(N)=O)C(N)=O)NC(=O)[C@H]([C@@H](C)O)NC(=O)[C@H](C(C)C)NC(=O)[C@H](CC3CCCCC3)NC(=O)[C@H](CCN)NC(=O)[C@@H](CC(C)C)NC(=O)[C@H](CCCN)NC(=O)[C@H](Cc3ccc(OCC(=O)O)cc3)NC(=O)[C@H](Cc3ccc(-c4ccccc4)cc3)NC(=O)[C@H](Cc3ccc(OCC(=O)O)cc3)NC2=O)c1 [Compound 2302] ({CH2CO}-[4Pal][Phe(4-COOH)]D[Phe(3-Me)]Y(Carboxymethyl)[Bip]Y(Carboxymethyl)[Orn][dL][Dab][Cha]VTCN-NH2; thioether N-14)
10 | 25.8 | Cc1cccc(C[C@@H]2NC(=O)[C@H](CC(=O)O)NC(=O)[C@H](Cc3ccc(OCC(=O)O)cc3)NC(=O)[C@H](CN)NC(=O)CSC[C@@H](C(N)=O)NC(=O)[C@H](CCC(=O)O)NC(=O)[C@H](C(C)C)NC(=O)[C@H](CC3CCCCC3)NC(=O)[C@H](CCN)NC(=O)[C@@H](CC(C)C)NC(=O)[C@H](CCCN)NC(=O)[C@H](Cc3ccc(OCC(=O)O)cc3)NC(=O)[C@H](Cc3ccc(-c4ccccc4)cc3)NC(=O)[C@H](Cc3ccc(OCC(=O)O)cc3)NC2=O)c1 [Compound 1784] ({CH2CO}-[Dap]Y(Carboxymethyl)D[Phe(3-Me)]Y(Carboxymethyl)[Bip]Y(Carboxymethyl)[Orn][dL][Dab][Cha]VEC-NH2; thioether N-14)
11 | 69.4 | CC(C)C[C@H]1NC(=O)[C@H](CCCN)NC(=O)[C@H](CCC(=O)O)NC(=O)[C@H](Cc2ccc(-c3ccccc3)cc2)NC(=O)[C@H](C(C)C)NC(=O)[C@H](Cc2c[nH]c3ccccc23)NC(=O)[C@H](CC(=O)O)NC(=O)[C@H](Cc2ccc3ncccc3c2)NC(=O)[C@H](CC(N)=O)NC(=O)CSC[C@@H](C(=O)N[C@@H](C)C(N)=O)NC(=O)[C@H]([C@@H](C)O)NC(=O)[C@H](C(C)C)NC(=O)[C@H](CC2CCCCC2)NC(=O)[C@H](CCN)NC1=O [Compound 2175] ({CH2CO}-N[X5]DWV[Bip]E[Orn][dL][Dab][Cha]VTCA-NH2; thioether N-14)
